In patent publication US20240252454A1, “COMPOSITION COMPRISING AN INHIBITOR OF MITOCHONDRIAL TRANSCRIPTION” (LEAD DISCOVERY CENTER GMBH, priority 2021, published 2024):

Columns and labels:
Experiment in all cases: SRB assay, IMT combined with inhibitor
Format in all cases: cell-based
A375 = A375 (skin); concentration series of the labelled inhibitor + fixed concentration of IMT (3S)-1-[(2R)-2-[4-(2-chloro-4-fluoro-phenyl)-2-oxo-chromen-7-yl]oxypropanoyl]piperidine-3-carboxylic acid (Table 3: 40 nM, 120 h); negative=synergistic, positive=antagonistic
Experimental: (§1) Solforhodamine B assay is carried out as described in Voigt W. (2005) Sulforhodamine B Assay and Chemosensitivity. (Methods in Molecular Medicine™, vol 110. Humana Press. https://doi.org/10.1385/1-59259-869-2:039).
(§2) The determination of changes in cellular biomass was based on the Solforhodamine B assay format, carried out as described in Voigt W. (2005) Sulforhodamine B Assay and Chemosensitivity. (Methods in Molecular Medicine™, vol 110. Humana Press. https://doi.org/10.1385/1-59259-869-2:039).
(§3) All in vitro cell culture experiments were carried out under near physiological glucose concentrations (5 mM) in at least two independent replicates.
(§4) First, 30 different cell lines from 14 different tissue types were tested in the SRB assay format. The cells were examined individually for changes in growth over a period of 120 hours with dilution series of both inhibitors. Untreated cells were used as a negative control group. Subsequently, a dilution series of the respective MAPK signalling pathway SOCs was treated in combination with a fixed concentration of 40 nM (3S)-1-[(2R)-2-[4-(2-chloro-4-fluoro-phenyl)-2-oxo-chromen-7-yl]oxypropanoyl]piperidine-3-carboxylic acid.

A673 = A673 (muscle); concentration series of the labelled inhibitor + fixed concentration of IMT (3S)-1-[(2R)-2-[4-(2-chloro-4-fluoro-phenyl)-2-oxo-chromen-7-yl]oxypropanoyl]piperidine-3-carboxylic acid (Table 3: 40 nM, 120 h); negative=synergistic, positive=antagonistic
Experimental: as §1, §2, §3, §4

BXPC3 = BXPC3 (pancreas); concentration series of the labelled inhibitor + fixed concentration of IMT (3S)-1-[(2R)-2-[4-(2-chloro-4-fluoro-phenyl)-2-oxo-chromen-7-yl]oxypropanoyl]piperidine-3-carboxylic acid (Table 3: 40 nM, 120 h); negative=synergistic, positive=antagonistic
Experimental: as §1, §2, §3, §4

HCT116 = HCT116 (colon); concentration series of the labelled inhibitor + fixed concentration of IMT (3S)-1-[(2R)-2-[4-(2-chloro-4-fluoro-phenyl)-2-oxo-chromen-7-yl]oxypropanoyl]piperidine-3-carboxylic acid (Table 3: 40 nM, 120 h); negative=synergistic, positive=antagonistic
Experimental: as §1, §2, §3, §4

HCT15 = HCT15 (colon); concentration series of the labelled inhibitor + fixed concentration of IMT (3S)-1-[(2R)-2-[4-(2-chloro-4-fluoro-phenyl)-2-oxo-chromen-7-yl]oxypropanoyl]piperidine-3-carboxylic acid (Table 3: 40 nM, 120 h); negative=synergistic, positive=antagonistic
Experimental: as §1, §2, §3, §4

HEPG2 = HEPG2 (liver); concentration series of the labelled inhibitor + fixed concentration of IMT (3S)-1-[(2R)-2-[4-(2-chloro-4-fluoro-phenyl)-2-oxo-chromen-7-yl]oxypropanoyl]piperidine-3-carboxylic acid (Table 3: 40 nM, 120 h); negative=synergistic, positive=antagonistic
Experimental: as §1, §2, §3, §4

HT29 = HT29 (colon); concentration series of the labelled inhibitor + fixed concentration of IMT (3S)-1-[(2R)-2-[4-(2-chloro-4-fluoro-phenyl)-2-oxo-chromen-7-yl]oxypropanoyl]piperidine-3-carboxylic acid (Table 3: 40 nM, 120 h); negative=synergistic, positive=antagonistic
Experimental: as §1, §2, §3, §4

IMR90 = IMR90 (lung); concentration series of the labelled inhibitor + fixed concentration of IMT (3S)-1-[(2R)-2-[4-(2-chloro-4-fluoro-phenyl)-2-oxo-chromen-7-yl]oxypropanoyl]piperidine-3-carboxylic acid (Table 3: 40 nM, 120 h); negative=synergistic, positive=antagonistic
Experimental: as §1, §2, §3, §4

JAR = JAR (placenta); concentration series of the labelled inhibitor + fixed concentration of IMT (3S)-1-[(2R)-2-[4-(2-chloro-4-fluoro-phenyl)-2-oxo-chromen-7-yl]oxypropanoyl]piperidine-3-carboxylic acid (Table 3: 40 nM, 120 h); negative=synergistic, positive=antagonistic
Experimental: as §1, §2, §3, §4

KASUMI-1 = KASUMI-1 (hematological); concentration series of the labelled inhibitor + fixed concentration of IMT (3S)-1-[(2R)-2-[4-(2-chloro-4-fluoro-phenyl)-2-oxo-chromen-7-yl]oxypropanoyl]piperidine-3-carboxylic acid (Table 3: 40 nM, 120 h); negative=synergistic, positive=antagonistic
Experimental: as §1, §2, §3, §4

LOVO = LOVO (colon); concentration series of the labelled inhibitor + fixed concentration of IMT (3S)-1-[(2R)-2-[4-(2-chloro-4-fluoro-phenyl)-2-oxo-chromen-7-yl]oxypropanoyl]piperidine-3-carboxylic acid (Table 3: 40 nM, 120 h); negative=synergistic, positive=antagonistic
Experimental: as §1, §2, §3, §4

MHHES1 = MHHES1 (bone); concentration series of the labelled inhibitor + fixed concentration of IMT (3S)-1-[(2R)-2-[4-(2-chloro-4-fluoro-phenyl)-2-oxo-chromen-7-yl]oxypropanoyl]piperidine-3-carboxylic acid (Table 3: 40 nM, 120 h); negative=synergistic, positive=antagonistic
Experimental: as §1, §2, §3, §4

MIAPACA2 = MIAPACA2 (pancreas); concentration series of the labelled inhibitor + fixed concentration of IMT (3S)-1-[(2R)-2-[4-(2-chloro-4-fluoro-phenyl)-2-oxo-chromen-7-yl]oxypropanoyl]piperidine-3-carboxylic acid (Table 3: 40 nM, 120 h); negative=synergistic, positive=antagonistic
Experimental: as §1, §2, §3, §4

PANC1 = PANC1 (pancreas); concentration series of the labelled inhibitor + fixed concentration of IMT (3S)-1-[(2R)-2-[4-(2-chloro-4-fluoro-phenyl)-2-oxo-chromen-7-yl]oxypropanoyl]piperidine-3-carboxylic acid (Table 3: 40 nM, 120 h); negative=synergistic, positive=antagonistic
Experimental: as §1, §2, §3, §4

SKMEL28 = SKMEL28 (skin); concentration series of the labelled inhibitor + fixed concentration of IMT (3S)-1-[(2R)-2-[4-(2-chloro-4-fluoro-phenyl)-2-oxo-chromen-7-yl]oxypropanoyl]piperidine-3-carboxylic acid (Table 3: 40 nM, 120 h); negative=synergistic, positive=antagonistic
Experimental: as §1, §2, §3, §4

O=C(c1cc(Cc2n[nH]c(=O)c3ccccc23)ccc1F)N1CCN(C(=O)C2CC2)CC1 [Olaparib]
difference between the calculated combinatorial index (BLISS) and the observed combinatorial effect (A375): −0.0650
difference between the calculated combinatorial index (BLISS) and the observed combinatorial effect (A673): 0.0334
difference between the calculated combinatorial index (BLISS) and the observed combinatorial effect (BXPC3): 0.0315
difference between the calculated combinatorial index (BLISS) and the observed combinatorial effect (HCT116): −0.0690
difference between the calculated combinatorial index (BLISS) and the observed combinatorial effect (HCT15): −0.0472
difference between the calculated combinatorial index (BLISS) and the observed combinatorial effect (HEPG2): −0.0439
difference between the calculated combinatorial index (BLISS) and the observed combinatorial effect (HT29): 0.0068
difference between the calculated combinatorial index (BLISS) and the observed combinatorial effect (IMR90): 0.0084
difference between the calculated combinatorial index (BLISS) and the observed combinatorial effect (JAR): 0.0294
difference between the calculated combinatorial index (BLISS) and the observed combinatorial effect (KASUMI-1): −0.0415
difference between the calculated combinatorial index (BLISS) and the observed combinatorial effect (LOVO): −0.0819
difference between the calculated combinatorial index (BLISS) and the observed combinatorial effect (MHHES1): 0.0269
difference between the calculated combinatorial index (BLISS) and the observed combinatorial effect (MIAPACA2): 0.0529
difference between the calculated combinatorial index (BLISS) and the observed combinatorial effect (PANC1): −0.0430
difference between the calculated combinatorial index (BLISS) and the observed combinatorial effect (SKMEL28): −0.0624

O=C(NOC[C@H](O)CO)c1ccc(F)c(F)c1Nc1ccc(I)cc1F [PD 0325901, (R)—N-(2,3-dihydroxypropoxy)-3,4-difluoro-2-((2-fluoro-4-iodophenyl)amino)benzamide]
difference between the calculated combinatorial index (BLISS) and the observed combinatorial effect (A375): 0.0418
difference between the calculated combinatorial index (BLISS) and the observed combinatorial effect (A673): 0.0281
difference between the calculated combinatorial index (BLISS) and the observed combinatorial effect (BXPC3): 0.0495
difference between the calculated combinatorial index (BLISS) and the observed combinatorial effect (HCT116): −0.0042
difference between the calculated combinatorial index (BLISS) and the observed combinatorial effect (HCT15): 0.1249
difference between the calculated combinatorial index (BLISS) and the observed combinatorial effect (HEPG2): 0.0334
difference between the calculated combinatorial index (BLISS) and the observed combinatorial effect (HT29): 0.0786
difference between the calculated combinatorial index (BLISS) and the observed combinatorial effect (IMR90): 0.0387
difference between the calculated combinatorial index (BLISS) and the observed combinatorial effect (JAR): 0.0256
difference between the calculated combinatorial index (BLISS) and the observed combinatorial effect (KASUMI-1): −0.0286
difference between the calculated combinatorial index (BLISS) and the observed combinatorial effect (LOVO): −0.0229
difference between the calculated combinatorial index (BLISS) and the observed combinatorial effect (MHHES1): 0.0437
difference between the calculated combinatorial index (BLISS) and the observed combinatorial effect (MIAPACA2): 0.0500
difference between the calculated combinatorial index (BLISS) and the observed combinatorial effect (PANC1): 0.1000
difference between the calculated combinatorial index (BLISS) and the observed combinatorial effect (SKMEL28): 0.0303

CC(=O)Nc1cccc(-n2c(=O)n(C3CC3)c(=O)c3c(Nc4ccc(I)cc4F)n(C)c(=O)c(C)c32)c1 [Trametinib]
difference between the calculated combinatorial index (BLISS) and the observed combinatorial effect (A375): 0.0510
difference between the calculated combinatorial index (BLISS) and the observed combinatorial effect (A673): 0.0225
difference between the calculated combinatorial index (BLISS) and the observed combinatorial effect (BXPC3): 0.0889
difference between the calculated combinatorial index (BLISS) and the observed combinatorial effect (HCT116): −0.0027
difference between the calculated combinatorial index (BLISS) and the observed combinatorial effect (HCT15): 0.0677
difference between the calculated combinatorial index (BLISS) and the observed combinatorial effect (HEPG2): 0.0351
difference between the calculated combinatorial index (BLISS) and the observed combinatorial effect (HT29): 0.0338
difference between the calculated combinatorial index (BLISS) and the observed combinatorial effect (IMR90): 0.0533
difference between the calculated combinatorial index (BLISS) and the observed combinatorial effect (JAR): 0.0230
difference between the calculated combinatorial index (BLISS) and the observed combinatorial effect (KASUMI-1): −0.0377
difference between the calculated combinatorial index (BLISS) and the observed combinatorial effect (LOVO): −0.0287
difference between the calculated combinatorial index (BLISS) and the observed combinatorial effect (MHHES1): 0.0760
difference between the calculated combinatorial index (BLISS) and the observed combinatorial effect (MIAPACA2): 0.1602
difference between the calculated combinatorial index (BLISS) and the observed combinatorial effect (PANC1): 0.0596
difference between the calculated combinatorial index (BLISS) and the observed combinatorial effect (SKMEL28): 0.0296
